Where a name gives a salt, the structure may show the parent alone.
Target: D2 -receptor (Rattus norvegicus, UniProt P61169)
Experiment: Receptor binding test (3H-ADTN, rat striatal membranes)
Set-up: species or system rats (Sprague Dawley)
Conditions: not given

D2 -receptor, sequence (P61169 whole entry): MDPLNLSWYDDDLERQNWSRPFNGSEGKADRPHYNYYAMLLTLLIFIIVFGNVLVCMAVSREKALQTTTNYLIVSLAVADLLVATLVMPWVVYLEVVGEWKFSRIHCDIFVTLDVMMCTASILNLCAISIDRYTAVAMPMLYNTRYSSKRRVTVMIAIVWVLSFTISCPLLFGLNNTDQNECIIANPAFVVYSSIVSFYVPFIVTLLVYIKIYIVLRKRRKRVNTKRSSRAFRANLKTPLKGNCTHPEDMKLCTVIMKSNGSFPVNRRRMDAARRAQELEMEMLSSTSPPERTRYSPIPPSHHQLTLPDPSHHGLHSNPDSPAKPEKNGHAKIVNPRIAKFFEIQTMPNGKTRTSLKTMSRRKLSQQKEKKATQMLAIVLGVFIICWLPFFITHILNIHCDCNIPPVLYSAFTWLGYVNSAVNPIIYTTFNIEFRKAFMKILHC

**Q.** How did the Ki turn out when `Nc1nc(-c2cccs2)c(CCN2CC=C(c3ccccc3)CC2)s1` [Example 5, 2-Amino-5-[2-(4-phenyl-1,2,3,6-tetrahydropyridyl)-ethyl]-4-thien-2-ylthiazole dihydrochloride] was run?
**A.** 0.01 µM

**Q.** For `COc1ccc(-c2nc(N)sc2CCN2CC=C(c3ccccc3)CC2)cc1` [Example 4, 2-Amino-4-(4-methoxyphenyl)-5-[2-(4-phenyl-1,2,3,6-tetrahydropyridyl)-ethyl]-thiazole], which Ki is on record?
**A.** 0.016 µM

**Q.** For `Cc1nc(N)sc1CCCN1CC=C(c2ccccc2)CC1` [Example 11, 2-Amino-4-methyl-5-[3-(4-phenyl-1,2,3,6-tetrahydropyridyl)-propyl]-thiazoletartrate], which Ki is on record?
**A.** 0.01 µM

**Q.** With `Cc1nc(Nc2ccccc2)sc1CCCN1CC=C(c2ccccc2)CC1` [Example 3, 4-methyl-2-phenylamino-5-[3-(4-phenyl-1,2,3,6-tetrahydropyridyl)-propyl]-thiazole dihydrochloride] as the molecule, how does the Ki read?
**A.** 0.004 µM

**Q.** For `Nc1nc(-c2ccccc2)c(CCN2CC=C(c3ccccc3)CC2)s1` [Example 8, 2-Amino-4-phenyl-5-[2-(4-phenyl-1,2,3,6-tetrahydropyridyl)-ethyl]-thiazole tartrate], which Ki is on record?
**A.** 0.01 µM

Same assay, conditions: displacement of 1 nM 3H-ADTN, rat striatum membranes, 0.1 μM SCH 23390, 40 min at 25° C.; read-out: Ki

**Q.** For `CCCN(CCCc1sc(N)nc1-c1ccccc1)CCc1ccccc1` [Example 23, 2-Amino-4-phenyl-5-[3-(N-propyl-N-phenethylamino)-propyl]-thiazole dihydrochloride], which Ki is on record?
**A.** 0.02 µM

**Q.** With `Nc1nc(-c2ccccc2)c(CCCN2CCN(c3ccccc3)CC2)s1` [Example 9, 2-Amino-4-phenyl-5-[3-(4-phenylpiperazin-1-yl)-propyl]-thiazole trihydrochloride] as the molecule, how does the Ki read?
**A.** 0.014 µM

**Q.** How did the Ki turn out when `Nc1nc(-c2ccccc2)c(CCCN2CCN(c3ncccn3)CC2)s1` [Example 13, 2-Amino-4-phenyl-5-[3-(4-pyrimid-2-ylpiperazin-1-yl)-propyl]-thiazole tartrate] was run?
**A.** 0.01 µM

**Q.** Which Ki does the source give for `CCCN(CCCCc1sc(N)nc1C)CCc1ccccc1` [Example 25, 2-Amino-4-methyl-5-[4-(N-propyl-N-phenethylamino)-butyl]-thiazole dihydrochloride] here?
**A.** 0.004 µM

**Q.** With `Nc1nc(-c2ccccc2)c(CCCN2CCN(c3ccccc3Cl)CC2)s1` [Example 18, 2-Amino-5-[3-(4-(2-chlorophenyl)-piperazin-1-yl)-propyl]-4-phenylthiazole tartrate] as the molecule, how does the Ki read?
**A.** 0.025 µM

**Q.** With `CCCN(CCCc1sc(N)nc1C)CCc1ccccc1` [Example 10, 2-Amino-4-methyl-5-[3-(N-phenethyl-N-propylamino)-propyl]-thiazole fumarate] as the molecule, how does the Ki read?
**A.** 0.01 µM

**Q.** For `Cc1nc(N)sc1CCCN(C)CCc1ccccc1` [Example 2, 2-Amino-4-methyl-5-[3-(N-methyl-N-phenethylamino)-propyl]-thiazole fumarate], which Ki is on record?
**A.** 0.02 µM

**Q.** `Nc1nc(-c2ccccc2)c(CCN2CCN(c3ccccc3[N+](=O)[O-])CC2)s1` [Example 22, 2-Amino-5-[2-(4-(2-nitrophenyl)-piperazin-1-yl)-ethyl]-4-phenylthiazole tartrate] was tested. Which Ki did it give?
**A.** 0.016 µM

**Q.** With “2-Methylamino-4-methyl-5-[3-(4-phenylpiperazin-1-yl)-propyl]-thiazole dihydrochloride [Example 1]” as the molecule, how does the Ki read?
**A.** 0.006 µM

**Q.** Which Ki does the source give for `Nc1nc(-c2ccccc2)c(CCCN2CCN(c3ccccn3)CC2)s1` [Example 14, 2-Amino-4-phenyl-5-[3-(4-pyrid-2-ylpiperazin-1-yl)-propyl]tartrate] here?
**A.** 0.015 µM
